Assay results taken from PubChem BioAssay AID2060487 (Molecular Pharmacology Branch, DTP, NCI, 2025).
pIC50: −log10 of the molar value.

Tested on: 997537-175-T-J1-PDC complex spheroid viability
Assay: Anticancer human tumor 997537-175-T-J1-PDC patient-derived colon adenocarcinoma cell line growth inhibition [GQUAD]
Settings: for pIC50: curve of first compound; for viability, T/C: stronger effect = lower value
Method in brief: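 Tumor cells were grown as complex spheroids with HUVEC endothelial cells and mesenchymal stem cells as stroma. G-quadruplex stabilizers were combined with targeted agents over half-log dilutions from near the clinical Cmax, or from 10 microM.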

[1] = second compound 0.0316 µM, first compound 0.0316 µM
[2] = second compound 0.0316 µM, first compound 0.1 µM
[3] = second compound 0.0316 µM, first compound 0.316 µM
[4] = second compound 0.0316 µM, first compound 1 µM
[5] = second compound 0.0316 µM, first compound 3.16 µM
[6] = second compound 0.0316 µM, first compound 10 µM
[7] = second compound 0.1 µM, first compound 0.0316 µM
[8] = second compound 0.1 µM, first compound 0.1 µM
[9] = second compound 0.1 µM, first compound 0.316 µM
[10] = second compound 0.1 µM, first compound 1 µM
[11] = second compound 0.1 µM, first compound 3.16 µM
[12] = second compound 0.1 µM, first compound 10 µM
[13] = second compound 0.316 µM, first compound 0.0316 µM
[14] = second compound 0.316 µM, first compound 0.1 µM
[15] = second compound 0.316 µM, first compound 0.316 µM
[16] = second compound 0.316 µM, first compound 1 µM
[17] = second compound 0.316 µM, first compound 3.16 µM
[18] = second compound 0.316 µM, first compound 10 µM
[19] = second compound 1 µM, first compound 0.0316 µM
[20] = second compound 1 µM, first compound 0.1 µM
[21] = second compound 1 µM, first compound 0.316 µM
[22] = second compound 1 µM, first compound 1 µM
[23] = second compound 1 µM, first compound 3.16 µM
[24] = second compound 1 µM, first compound 10 µM
[25] = second compound 3.16 µM, first compound 0.0316 µM
[26] = second compound 3.16 µM, first compound 0.1 µM
[27] = second compound 3.16 µM, first compound 0.316 µM
[28] = second compound 3.16 µM, first compound 1 µM
[29] = second compound 3.16 µM, first compound 3.16 µM
[30] = second compound 3.16 µM, first compound 10 µM
[31] = second compound 10 µM, first compound 0.0316 µM
[32] = second compound 10 µM, first compound 0.1 µM
[33] = second compound 10 µM, first compound 0.316 µM
[34] = second compound 10 µM, first compound 1 µM
[35] = second compound 10 µM, first compound 3.16 µM
[36] = second compound 10 µM, first compound 10 µM
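Also: spheroids exposed to the agents for 7 days.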
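For viability, T/C in this document: 100% = DMSO vehicle control viability.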

COc1cccc2c1C(=O)c1c(O)c3c(c(O)c1C2=O)CC(O)(C(=O)CO)CC3OC1CC(N)C(O)C(C)O1 (stereo unspecified) + CN(C)c1ccc(Nc2c3ccc(NC(=O)CCN4CCCC4)cc3nc3cc(NC(=O)CCN4CCCC4)ccc23)cc1
pIC50 (second compound 0.0316 µM): 5.18 | pIC50 (second compound 0.1 µM): 5.07 | pIC50 (second compound 0.316 µM): < 5.00 | pIC50 (second compound 1 µM): < 5.00 | pIC50 (second compound 3.16 µM): < 5.00 | pIC50 (second compound 10 µM): < 5.00 | viability, T/C [1]: 98% | viability, T/C [2]: 88.9% | viability, T/C [3]: 99.1% | viability, T/C [4]: 96.3% | viability, T/C [5]: 71.7% | viability, T/C [6]: 37.4% | viability, T/C [7]: 111% | viability, T/C [8]: 88.3% | viability, T/C [9]: 77.6% | viability, T/C [10]: 94.8% | viability, T/C [11]: 96.2% | viability, T/C [12]: 42.9% | viability, T/C [13]: 89.5% | viability, T/C [14]: 88.5% | viability, T/C [15]: 101% | viability, T/C [16]: 102% | viability, T/C [17]: 94.6% | viability, T/C [18]: 56.5% | viability, T/C [19]: 63.7% | viability, T/C [20]: 86.7% | viability, T/C [21]: 101% | viability, T/C [22]: 83.8% | viability, T/C [23]: 97% | viability, T/C [24]: 51.5% | viability, T/C [25]: 74.8% | viability, T/C [26]: 77.1% | viability, T/C [27]: 107% | viability, T/C [28]: 90% | viability, T/C [29]: 99% | viability, T/C [30]: 67.3% | viability, T/C [31]: 94.1% | viability, T/C [32]: 84.2% | viability, T/C [33]: 102% | viability, T/C [34]: 83.3% | viability, T/C [35]: 81% | viability, T/C [36]: 58.2%

Nc1ccn(C2OC(CO)C(O)C2(F)F)c(=O)n1 (stereo unspecified) + CN(C)c1ccc(Nc2c3ccc(NC(=O)CCN4CCCC4)cc3nc3cc(NC(=O)CCN4CCCC4)ccc23)cc1
pIC50 (second compound 0.0316 µM): < 5.00 | pIC50 (second compound 0.1 µM): < 5.00 | pIC50 (second compound 0.316 µM): < 5.00 | pIC50 (second compound 1 µM): 5.03 | pIC50 (second compound 3.16 µM): < 5.00 | pIC50 (second compound 10 µM): < 5.00 | viability, T/C [1]: 99.1% | viability, T/C [2]: 104% | viability, T/C [3]: 110% | viability, T/C [4]: 64.1% | viability, T/C [5]: 70.2% | viability, T/C [6]: 69.5% | viability, T/C [7]: 96.3% | viability, T/C [8]: 98.5% | viability, T/C [9]: 97.1% | viability, T/C [10]: 72.3% | viability, T/C [11]: 88.3% | viability, T/C [12]: 68.8% | viability, T/C [13]: 81.7% | viability, T/C [14]: 97.8% | viability, T/C [15]: 74.5% | viability, T/C [16]: 74% | viability, T/C [17]: 96.8% | viability, T/C [18]: 77.6% | viability, T/C [19]: 66.7% | viability, T/C [20]: 86.9% | viability, T/C [21]: 79.9% | viability, T/C [22]: 87.5% | viability, T/C [23]: 110% | viability, T/C [24]: 47.5% | viability, T/C [25]: 55.6% | viability, T/C [26]: 80.3% | viability, T/C [27]: 79.7% | viability, T/C [28]: 81% | viability, T/C [29]: 84.5% | viability, T/C [30]: 66.2% | viability, T/C [31]: 84% | viability, T/C [32]: 85.1% | viability, T/C [33]: 84.7% | viability, T/C [34]: 89.5% | viability, T/C [35]: 80.8% | viability, T/C [36]: 63.5%

O=c1[nH]cc(F)c(=O)[nH]1 + CN(C)c1ccc(Nc2c3ccc(NC(=O)CCN4CCCC4)cc3nc3cc(NC(=O)CCN4CCCC4)ccc23)cc1
pIC50 (second compound 0.0316 µM): < 5.00 | pIC50 (second compound 0.1 µM): < 5.00 | pIC50 (second compound 0.316 µM): < 5.00 | pIC50 (second compound 1 µM): < 5.00 | pIC50 (second compound 3.16 µM): < 5.00 | pIC50 (second compound 10 µM): < 5.00 | viability, T/C [1]: 94.8% | viability, T/C [2]: 90.6% | viability, T/C [3]: 93.8% | viability, T/C [4]: 75.5% | viability, T/C [5]: 78.7% | viability, T/C [6]: 59.7% | viability, T/C [7]: 92.8% | viability, T/C [8]: 83% | viability, T/C [9]: 87.9% | viability, T/C [10]: 66.7% | viability, T/C [11]: 99.8% | viability, T/C [12]: 84.4% | viability, T/C [13]: 76.3% | viability, T/C [14]: 85.6% | viability, T/C [15]: 76.9% | viability, T/C [16]: 76.7% | viability, T/C [17]: 99.3% | viability, T/C [18]: 87.9% | viability, T/C [19]: 76.3% | viability, T/C [20]: 65.8% | viability, T/C [21]: 87.9% | viability, T/C [22]: 79.3% | viability, T/C [23]: 81.5% | viability, T/C [24]: 99.3% | viability, T/C [25]: 64.2% | viability, T/C [26]: 92.6% | viability, T/C [27]: 86.3% | viability, T/C [28]: 90.7% | viability, T/C [29]: 102% | viability, T/C [30]: 87.4% | viability, T/C [31]: 73.3% | viability, T/C [32]: 79% | viability, T/C [33]: 85.8% | viability, T/C [34]: 80% | viability, T/C [35]: 97% | viability, T/C [36]: 63.5%
